Values quoted from earlier work in US20040062779A1, “Dermatologic composition using ultra-fine/micronized 1-ascorbic acid and other antioxidant ingredients in a stabilized anhydrous vehicle” (priority 2002, published 2004).

System: collagen synthesis
Conditions: in-vitro; Pinnell, Yale J. Biol. Med. 58:554 (1985)

## O=C1O[C@H]([C@@H](O)CO)C(O)=C1O [ascorbic acid]
  collagen synthesis: stimulates collagen synthesis
